From ChEMBL document CHEMBL4396916, “Novel potent substituted 4-amino-2-thiopyrimidines as dual VEGFR-2 and BRAF kinase inhibitors” (Eur J Med Chem, 2019)
pIC50: −log10 of the molar value.

How the values were obtained:
[1] = test system: HOP-62; assay: Growth inhibition of human HOP62 cells at 10 uM incubated for 48 hrs by sulforhodamine B assay relative to control; format: functional; settings: HOP-62, 48 h, read-out: GI
[2] = target: Vascular endothelial growth factor receptor 2 (Homo sapiens, UniProt P35968); assay: Inhibition of human N-terminal GST tagged VEGFR-2 expressed in baculovirus infected Sf9 cells using poly (Glu,Tyr) 4:1 as substrate in presence of ATP by Kinase-Glo luminescence assay
Sequence of Vascular endothelial growth factor receptor 2 (P35968 whole entry): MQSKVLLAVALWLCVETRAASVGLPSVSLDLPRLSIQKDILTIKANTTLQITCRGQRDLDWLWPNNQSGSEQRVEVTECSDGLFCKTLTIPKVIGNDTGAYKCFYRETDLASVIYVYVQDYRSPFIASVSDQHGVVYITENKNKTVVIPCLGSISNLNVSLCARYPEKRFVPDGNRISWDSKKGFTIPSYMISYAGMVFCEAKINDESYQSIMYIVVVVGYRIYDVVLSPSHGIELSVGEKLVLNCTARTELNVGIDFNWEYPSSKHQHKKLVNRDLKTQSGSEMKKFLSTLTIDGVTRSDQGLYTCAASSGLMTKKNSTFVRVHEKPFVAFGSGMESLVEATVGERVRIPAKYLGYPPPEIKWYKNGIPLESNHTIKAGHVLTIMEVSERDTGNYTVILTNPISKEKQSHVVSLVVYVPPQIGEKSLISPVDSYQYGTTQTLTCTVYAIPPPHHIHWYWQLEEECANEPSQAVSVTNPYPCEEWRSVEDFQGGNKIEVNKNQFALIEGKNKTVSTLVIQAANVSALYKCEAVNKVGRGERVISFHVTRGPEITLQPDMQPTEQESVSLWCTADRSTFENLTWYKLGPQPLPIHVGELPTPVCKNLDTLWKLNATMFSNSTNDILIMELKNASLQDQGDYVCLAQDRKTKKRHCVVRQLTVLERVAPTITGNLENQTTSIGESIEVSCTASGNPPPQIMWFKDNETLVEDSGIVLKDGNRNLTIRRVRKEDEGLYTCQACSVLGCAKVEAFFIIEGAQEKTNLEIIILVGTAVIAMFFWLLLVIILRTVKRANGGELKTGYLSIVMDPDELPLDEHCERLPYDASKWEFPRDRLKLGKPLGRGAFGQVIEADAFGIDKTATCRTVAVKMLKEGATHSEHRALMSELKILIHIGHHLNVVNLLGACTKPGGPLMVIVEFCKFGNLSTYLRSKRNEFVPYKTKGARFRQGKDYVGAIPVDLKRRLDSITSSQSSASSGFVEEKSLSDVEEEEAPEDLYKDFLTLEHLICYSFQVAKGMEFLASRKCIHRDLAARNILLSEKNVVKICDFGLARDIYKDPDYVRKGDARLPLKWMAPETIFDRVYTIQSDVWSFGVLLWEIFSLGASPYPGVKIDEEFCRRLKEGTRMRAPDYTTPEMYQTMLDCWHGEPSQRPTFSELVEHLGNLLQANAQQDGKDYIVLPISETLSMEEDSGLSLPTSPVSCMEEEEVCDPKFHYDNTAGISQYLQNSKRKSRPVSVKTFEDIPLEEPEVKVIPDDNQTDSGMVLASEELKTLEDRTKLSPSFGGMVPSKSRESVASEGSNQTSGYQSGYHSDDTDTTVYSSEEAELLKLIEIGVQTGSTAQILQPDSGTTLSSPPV

[3] = test system: SF-539; assay: Growth inhibition of human SF539 cells at 10 uM incubated for 48 hrs by sulforhodamine B assay relative to control; format: functional; settings: SF-539, 48 h, read-out: GI
[4] = test system: A549; assay: Growth inhibition of human A549/ATCC cells at 10 uM incubated for 48 hrs by sulforhodamine B assay relative to control; format: functional; settings: A549, 48 h, read-out: GI
[5] = test system: DU-145; assay: Growth inhibition of human DU145 cells at 10 uM incubated for 48 hrs by sulforhodamine B assay relative to control; format: functional; settings: DU-145, 48 h, read-out: GI
[6] = test system: RPMI-8226; assay: Growth inhibition of human RPMI8226 cells at 10 uM incubated for 48 hrs by sulforhodamine B assay relative to control; format: functional; settings: RPMI-8226, 48 h, read-out: GI
[7] = test system: UO-31; assay: Growth inhibition of human UO31 cells at 10 uM incubated for 48 hrs by sulforhodamine B assay relative to control; format: functional; settings: UO-31, 48 h, read-out: GI
[8] = test system: CAKI-1; assay: Growth inhibition of human Caki1 cells at 10 uM incubated for 48 hrs by sulforhodamine B assay relative to control; format: functional; settings: CAKI-1, 48 h, read-out: GI
[9] = test system: ACHN; assay: Growth inhibition of human ACHN cells at 10 uM incubated for 48 hrs by sulforhodamine B assay relative to control; format: functional; settings: read-out: GI
[10] = test system: MDA-MB-468; assay: Growth inhibition of human MDA-MB-468 cells at 10 uM incubated for 48 hrs by sulforhodamine B assay relative to control; format: functional; settings: MDA-MB-468, 48 h, read-out: GI
[11] = test system: MCF7; assay: Cytotoxicity against human MCF7 cells expressing VEGFR2 and wild type BRAF measured after 48 hrs by sulforhodamine B assay; format: functional, cell-based; settings: MCF7, 48 h
[12] = test system: IGROV-1; assay: Growth inhibition of human IGROV1 cells at 10 uM incubated for 48 hrs by sulforhodamine B assay relative to control; format: functional; settings: IGROV-1, 48 h, read-out: GI
[13] = test system: SR; assay: Growth inhibition of human SR cells at 10 uM incubated for 48 hrs by sulforhodamine B assay relative to control; format: functional; settings: read-out: GI
[14] = test system: CCRF-CEM; assay: Growth inhibition of human CCRF-CEM cells at 10 uM incubated for 48 hrs by sulforhodamine B assay relative to control; format: functional; settings: read-out: GI
[15] = test system: T47D; assay: Growth inhibition of human T47D cells at 10 uM incubated for 48 hrs by sulforhodamine B assay relative to control; format: functional; settings: read-out: GI
[16] = test system: A498; assay: Growth inhibition of human A498 cells at 10 uM incubated for 48 hrs by sulforhodamine B assay relative to control; format: functional; settings: A498, 48 h, read-out: GI
[17] = test system: SK-OV-3; assay: Growth inhibition of human SKOV3 cells at 10 uM incubated for 48 hrs by sulforhodamine B assay relative to control; format: functional; settings: SK-OV-3, 48 h, read-out: GI
[18] = test system: PC-3; assay: Growth inhibition of human PC3 cells at 10 uM incubated for 48 hrs by sulforhodamine B assay relative to control; format: functional; settings: PC-3, 48 h, read-out: GI
[19] = test system: UACC-62; assay: Growth inhibition of human UACC62 cells at 10 uM incubated for 48 hrs by sulforhodamine B assay relative to control; format: functional; settings: UACC-62, 48 h, read-out: GI
[20] = test system: MDA-MB-231; assay: Growth inhibition of human MDA-MB-231 cells at 10 uM incubated for 48 hrs by sulforhodamine B assay relative to control; format: functional; settings: MDA-MB-231, 48 h, read-out: GI
[21] = test system: HOP-92; assay: Growth inhibition of human HOP92 cells at 10 uM incubated for 48 hrs by sulforhodamine B assay relative to control; format: functional; settings: HOP-92, 48 h, read-out: GI
[22] = test system: Malme-3M; assay: Growth inhibition of human MALME-3M cells at 10 uM incubated for 48 hrs by sulforhodamine B assay relative to control; format: functional; settings: read-out: GI
[23] = test system: K562; assay: Growth inhibition of human K562 cells at 10 uM incubated for 48 hrs by sulforhodamine B assay relative to control; format: functional; settings: K562, 48 h, read-out: GI
[24] = test system: SW-620; assay: Growth inhibition of human SW620 cells at 10 uM incubated for 48 hrs by sulforhodamine B assay relative to control; format: functional; settings: SW-620, 48 h, read-out: GI
[25] = test system: HCT-15; assay: Growth inhibition of human HCT15 cells at 10 uM incubated for 48 hrs by sulforhodamine B assay relative to control; format: functional; settings: HCT-15, 48 h, read-out: GI
[26] = test system: NCI-H522; assay: Growth inhibition of human NCI-H522 cells at 10 uM incubated for 48 hrs by sulforhodamine B assay relative to control; format: functional; settings: NCI-H522, 48 h, read-out: GI
[27] = test system: NCI-H226; assay: Growth inhibition of human NCI-H226 cells at 10 uM incubated for 48 hrs by sulforhodamine B assay relative to control; format: functional; settings: NCI-H226, 48 h, read-out: GI
[28] = test system: COLO 205; assay: Growth inhibition of human COLO205 cells at 10 uM incubated for 48 hrs by sulforhodamine B assay relative to control; format: functional; settings: COLO 205, 48 h, read-out: GI
[29] = target: Serine/threonine-protein kinase B-raf (Homo sapiens, UniProt P15056); assay: Inhibition of human wild type BRAF by Kinase-Glo luminescence assay
Sequence of Serine/threonine-protein kinase B-raf (P15056 whole entry): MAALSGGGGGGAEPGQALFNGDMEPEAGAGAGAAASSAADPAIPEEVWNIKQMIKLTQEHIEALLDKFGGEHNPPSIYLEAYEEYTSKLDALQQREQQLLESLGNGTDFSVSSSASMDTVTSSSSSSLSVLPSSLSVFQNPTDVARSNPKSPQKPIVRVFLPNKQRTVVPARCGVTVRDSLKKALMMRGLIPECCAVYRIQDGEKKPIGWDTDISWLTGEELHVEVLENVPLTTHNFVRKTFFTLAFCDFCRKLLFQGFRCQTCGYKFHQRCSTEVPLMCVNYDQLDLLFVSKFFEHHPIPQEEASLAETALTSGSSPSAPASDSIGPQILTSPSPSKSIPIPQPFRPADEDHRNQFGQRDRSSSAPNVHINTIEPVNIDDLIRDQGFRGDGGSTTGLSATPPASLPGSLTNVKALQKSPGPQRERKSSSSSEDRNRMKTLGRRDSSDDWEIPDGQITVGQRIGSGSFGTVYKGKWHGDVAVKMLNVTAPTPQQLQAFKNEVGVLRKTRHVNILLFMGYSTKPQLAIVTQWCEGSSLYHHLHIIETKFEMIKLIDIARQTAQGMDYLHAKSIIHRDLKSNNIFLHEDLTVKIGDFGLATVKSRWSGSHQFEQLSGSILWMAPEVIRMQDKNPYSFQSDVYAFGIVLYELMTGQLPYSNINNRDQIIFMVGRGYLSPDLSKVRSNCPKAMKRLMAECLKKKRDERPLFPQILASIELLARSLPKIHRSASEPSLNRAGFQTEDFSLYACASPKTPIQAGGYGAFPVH

[30] = test system: NCI-H23; assay: Growth inhibition of human NCI-H23 cells at 10 uM incubated for 48 hrs by sulforhodamine B assay relative to control; format: functional; settings: NCI-H23, 48 h, read-out: GI
[31] = test system: HT-29; assay: Growth inhibition of human HT-29 cells at 10 uM incubated for 48 hrs by sulforhodamine B assay relative to control; format: functional; settings: HT-29, 48 h, read-out: GI
[32] = test system: HCT-116; assay: Growth inhibition of human HCT116 cells at 10 uM incubated for 48 hrs by sulforhodamine B assay relative to control; format: functional; settings: HCT-116, 48 h, read-out: GI
[33] = test system: KM12; assay: Growth inhibition of human KM12 cells at 10 uM incubated for 48 hrs by sulforhodamine B assay relative to control; format: functional; settings: KM12, 48 h, read-out: GI
[34] = test system: SN12C; assay: Growth inhibition of human SN12C cells at 10 uM incubated for 48 hrs by sulforhodamine B assay relative to control; format: functional; settings: read-out: GI

In the case of `CC(=O)c1ccc(Nc2ccnc(SCC(=O)c3ccc(-c4ccccc4)cc3)n2)cc1`, the inhibition of growth at 10 µM [1] was 13%, the pIC50 [2] was 6.55 and the inhibition of growth at 10 µM [3] was 13%. For the same compound, the inhibition of growth at 10 µM [4] was 20%, the inhibition of growth at 10 µM [5] was 16% and the inhibition of growth at 10 µM [6] was 26%. It also gave an inhibition of growth at 10 µM [7] of 27%, an inhibition of growth at 10 µM [8] of 16% and an inhibition of growth at 10 µM [9] of 26%. The inhibition of growth at 10 µM [10] was 13%, the pIC50 [11] was 4.18 and the inhibition of growth at 10 µM [12] was 14%. For the same compound, the inhibition of growth at 10 µM [13] was 41%, the inhibition of growth at 10 µM [14] was 22% and the inhibition of growth at 10 µM [15] was 29%. For the same compound, the inhibition of growth at 10 µM [16] was 55%, the inhibition of growth at 10 µM [17] was 11% and the inhibition of growth at 10 µM [18] was 19%. For the same compound, the inhibition of growth at 10 µM [19] was 20%, the inhibition of growth at 10 µM [20] was 22% and the inhibition of growth at 10 µM [21] was 21%. For the same compound, the inhibition of growth at 10 µM [22] was 14%, the inhibition of growth at 10 µM [23] was 10% and the inhibition of growth at 10 µM [24] was 26%. The inhibition of growth at 10 µM [25] was 13%, the inhibition of growth at 10 µM [26] was 22% and the inhibition of growth at 10 µM [27] was 11%. For the same compound, the inhibition of growth at 10 µM [28] was 11%, the pIC50 [29] was 5.98 and the inhibition of growth at 10 µM [30] was 10%. It also gave an inhibition of growth at 10 µM [31] of 16%, an inhibition of growth at 10 µM [32] of 42% and an inhibition of growth at 10 µM [33] of 24%. The inhibition of growth at 10 µM [34] was 11%.
